Data reported in the METLIN SMRT retention time set (Domingo-Almenara et al. 2019).

Experiment: gradient 5% acetonitrile 3 min, to 50% in 2 min, to 85% in 15 min, held 3 min, 100 µL/min
Conditions: column: Zorbax Extend-C18 2.1 x 50 mm; eluents: water / acetonitrile, 0.1% formic acid
Outline: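 Retention times of pure standards were taken from adduct peaks that were selected by computer and manually inspected. Over 3 months, mixtures of ~100 molecules were run by HPLC–quadrupole time-of-flight mass spectrometry in positive and negative ionization mode. The Zorbax Extend-C18 column (2.1 × 50 mm, 1.8 μm) ran at 100 μL/min in water and acetonitrile, each containing 0.1% formic acid, with 40 μL dead volume and 900 μL dwell volume.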

Structure (SMILES) | RP-LC retention time [s]
Cc1cccc(N2CCN(S(=O)(=O)c3cc(-c4cc(C(F)(F)F)on4)cs3)CC2)c1C | 1420
O=C(NCc1ccc2c(c1)OCO2)c1cn2c(n1)COCC2 | 616
CC(C)c1ccc(N2C(=O)C3N=NN(Cc4nc(-c5cccc(Br)c5)no4)C3C2=O)cc1 (stereo unspecified) | 1170
Cc1cc(Br)ccc1NC(=O)Cn1cnc2c(nc3n2CCCCC3)c1=O | 711
Cc1ccc(C)c(C(=O)N2CCN(c3nc4cccnc4o3)CC2)c1 | 765
O=C(NCc1cccs1)c1ccc2ncnc(N3CCCCC3)c2c1 | 644
Cc1ccc(S(=O)(=O)c2cnc(N3CCN(C(=O)OC(C)(C)C)CC3)nc2N)cc1 | 1030
O=C(NC1CCCN(c2cc(-c3ccc(Cl)cc3)[nH]n2)C1)c1ccc2[nH]ccc2c1 (stereo unspecified) | 825
CCOC(=O)c1noc2ncnc(Nc3cccc(F)c3)c12 | 616
Cc1cccc(NC(=O)N2CCCC2C(=O)NC(C)C)c1 (stereo unspecified) | 690
Cc1ccc(S(=O)(=O)N2CCCN(c3ccc(=O)n(-c4ccc(F)cc4)n3)CC2)c(C)c1 | 961
CCn1c(=O)c(C)nc2cc(-c3noc(-c4ccc(N(C)C)cc4)n3)ccc21 | 1140
CCCOc1ccc(-c2nc(N3CCCCCC3)c3ccccc3n2)cc1 | 971
CCCN1CCN(CCCNC(=O)c2sc3ncccc3c2-n2cccc2)CC1 | 574
COc1cc(C(=O)Nc2nc3ccc4nc(SC)sc4c3s2)cc(OC)c1OC | 1080
Cc1cc(F)ccc1N1C(=O)CN(S(C)(=O)=O)CC1(C)C(=O)NC1CCCCC1 (stereo unspecified) | 822
O=S(=O)(c1cccn2cnnc12)N(Cc1ccc(F)cc1)c1ccc(F)cc1 | 834
CCOC(=O)C1CCN(C(c2cccnc2)c2c(NC(=O)c3ccco3)sc(C)c2C)CC1 (stereo unspecified) | 926

Structure (SMILES) | RP-LC retention time [s]
CNC(=O)c1ccc(-c2nc3cc(NS(=O)(=O)c4ccc(C)cc4C)ccc3n2C)cc1 | 657
Cc1ccc(C)c(NC(=O)C(=O)NCC(c2ccc3c(c2)OCO3)N2CCN(C)CC2)c1 (stereo unspecified) | 702
CCCn1c(=O)c(C)nc2cc(-c3noc(Cc4cccc(F)c4)n3)ccc21 | 1090
COc1ccc(CN(C)Cc2cc(=O)n3cc(C)ccc3n2)cc1 | 598
COc1ccc(OC)c(S(=O)(=O)Cc2nc(-c3ccc(C)cc3)no2)c1 | 1000
CCOc1ccc(CNC(=O)CN2CC=C(c3cnn(-c4ccccc4)c3)CC2)cc1 | 722
COc1ccc(C(=O)N2CCC(n3c(-c4ccco4)nc4cccnc43)C2)cc1OC (stereo unspecified) | 644
Cc1oc(-c2[nH]ncc2C(=O)N2CCOCC2)cc1S(=O)(=O)NC1CC1 | 607
COCc1c(C(=O)O)nnn1-c1cc(C)ccc1F | 708
O=C(CCc1ccc2[nH]ccc2c1)N1CCN(c2ccc(F)cc2)CC1 | 865
O=C(C1CCN(S(=O)(=O)c2ccc(-c3noc(C4CC4)n3)cc2)CC1)N1CCOCC1 | 805
COc1cc(CN2CCc3nc(N4CCC(C)CC4)ncc3C2)ccc1OC(C)C | 764
CN(C)CCn1nnc2cc(-c3noc(Cc4ccc(F)cc4)n3)ccc21 | 714
Cc1cc(C)n(-c2ccnc(N3CCC(C(=O)NC4CC4)CC3)n2)n1 | 693
COc1cc(CCC(=O)O)on1 | 658
CC1=C(c2ccc(C)c(C)c2)S(=O)(=O)N=C1N1CCCN(C(=O)NC(C)C)CC1 | 787
CCN1C(=O)c2cccnc2Sc2cc(NC(=O)COC)ccc21 | 655

More lines, now with the values ahead:

RP-LC retention time [s] | Structure (SMILES)
688 | CC(O)CNC(=O)C1CCCN(c2ccc(Sc3ccc(Br)cc3)nn2)C1 (stereo unspecified)
876 | CC(C)NC(=O)c1ccc(OCC2CCCN(C(=O)c3ccc(Br)o3)C2)cc1 (stereo unspecified)
658 | O=c1cc(-c2ccccc2)nc2n1CCN2Cc1ccccn1
632 | CCC(C(=O)N1CCN(c2ccccn2)CC1)n1c(C)c2cnn(-c3ccccc3)c(=O)c2c1C (stereo unspecified)
717 | Cc1ccccc1-c1nc2cnccn2c1NCCC(=O)NCc1cccc(Cl)c1
740 | Cc1ccc(CNC(=O)C2CCCN(c3nnc4ccc(Cl)cn34)C2)o1 (stereo unspecified)
592 | CCOC(=O)CNC(=O)NCCn1c(-c2ccc(F)cc2)nc2ccccc21
607 | COCCCNC(=O)CCc1c(-c2ccc(Cl)cc2)nc2ccccn12
712 | CCn1cnc(S(=O)(=O)N2CCCC(C(=O)NCc3ccc(F)cc3)C2)c1 (stereo unspecified)
962 | Cc1nn2c(CNS(=O)(=O)c3ccc(C)c(Cl)c3)c(-c3ccccc3)nc2s1
929 | CCc1nn2c(CNS(=O)(=O)c3cc(F)ccc3F)c(-c3ccccc3)nc2s1
1070 | CCOc1ccc(OCC)c(NC(=O)C(=O)c2ccc[nH]2)c1
599 | CN1CCN(c2ccc(CNC(=O)CN3CCN(Cc4ccc(F)cc4)C3=O)cc2)CC1
1200 | CCCSCCCNC(=O)C1CCCN(c2nc3ccccc3n(Cc3ccccc3)c2=O)C1 (stereo unspecified)
713 | CCn1c(CCc2ccccc2NS(=O)(=O)c2cccc3nsnc23)nc2ccccc21
762 | O=C(NCCc1ccco1)C1CCN(Cc2cc3ccccc3n2Cc2ccccc2)CC1

RP-LC retention time [s] | Structure (SMILES)
748 | CCN1c2ccccc2C(=O)NC12CCN(C(=O)Nc1ccccc1F)CC2
800 | COc1ccc(NC(=O)Cn2nc(C(=O)N3CCCC3)c3ccccc32)cc1
831 | Cn1c(C(=O)NCCCN2CCCC2=O)cc2c(-c3cccs3)nn(-c3ccccc3)c21
1090 | Cc1cccc(NC(=O)Cn2nc(N3CCCC(C)C3)c3ccccc3c2=O)c1 (stereo unspecified)
691 | O=C(c1nc(Cn2cnc3ccccc3c2=O)no1)N1CCN(Cc2ccc3c(c2)OCO3)CC1
701 | O=C(NCc1ccccc1)C1Oc2ccccc2NC1=O (stereo unspecified)
905 | Cc1nn(-c2ccccc2)c(C)c1S(=O)(=O)N1CCC(C(=O)Nc2ccc3c(c2)OCO3)CC1
736 | O=C(CN1C(=O)NC2(CCCCC2)C1=O)Nc1ccc(F)cc1F
643 | Cc1nc(-c2ccc(OC3CCN(C(=O)CCc4nc5ccccc5[nH]4)C3)cc2)no1 (stereo unspecified)
842 | Cc1ccc(N2CCC(NC(=O)c3ccc(C)s3)C2=O)cc1 (stereo unspecified)
771 | Cc1nnc(N2CCCC(C(=O)NCc3ccc(F)cc3)C2)c2nn(-c3ccc(Cl)cc3)c(C)c12 (stereo unspecified)
634 | CC(Oc1ccc(-c2cnc3ccccc3n2)cc1)C(=O)NCCN(C)C (stereo unspecified)
700 | Cc1ccccc1NC(=O)c1cnc2c(c1)c(=O)n(C)c(=O)n2-c1ccccc1
672 | NC(=O)c1oc2ccccc2c1NC(=O)C1=COCCO1
1100 | CC(C)OC(=O)Cn1nc(-c2nc(-c3cccc(Cl)c3)no2)ccc1=O
